What was measured:
[1] = target: T1, hPRB and NCoR (Homo sapiens, UniProt P06401); assay: Mammalian two hybrid assay, recruitment of co-repressor NCoR by hPRB; format: cell-based; details: HEK293T, FIGS. 12 and 14
T1 construct: expressed in transfected cells; host or cells: HEK 293T
T1 sequence (P06401 1-933): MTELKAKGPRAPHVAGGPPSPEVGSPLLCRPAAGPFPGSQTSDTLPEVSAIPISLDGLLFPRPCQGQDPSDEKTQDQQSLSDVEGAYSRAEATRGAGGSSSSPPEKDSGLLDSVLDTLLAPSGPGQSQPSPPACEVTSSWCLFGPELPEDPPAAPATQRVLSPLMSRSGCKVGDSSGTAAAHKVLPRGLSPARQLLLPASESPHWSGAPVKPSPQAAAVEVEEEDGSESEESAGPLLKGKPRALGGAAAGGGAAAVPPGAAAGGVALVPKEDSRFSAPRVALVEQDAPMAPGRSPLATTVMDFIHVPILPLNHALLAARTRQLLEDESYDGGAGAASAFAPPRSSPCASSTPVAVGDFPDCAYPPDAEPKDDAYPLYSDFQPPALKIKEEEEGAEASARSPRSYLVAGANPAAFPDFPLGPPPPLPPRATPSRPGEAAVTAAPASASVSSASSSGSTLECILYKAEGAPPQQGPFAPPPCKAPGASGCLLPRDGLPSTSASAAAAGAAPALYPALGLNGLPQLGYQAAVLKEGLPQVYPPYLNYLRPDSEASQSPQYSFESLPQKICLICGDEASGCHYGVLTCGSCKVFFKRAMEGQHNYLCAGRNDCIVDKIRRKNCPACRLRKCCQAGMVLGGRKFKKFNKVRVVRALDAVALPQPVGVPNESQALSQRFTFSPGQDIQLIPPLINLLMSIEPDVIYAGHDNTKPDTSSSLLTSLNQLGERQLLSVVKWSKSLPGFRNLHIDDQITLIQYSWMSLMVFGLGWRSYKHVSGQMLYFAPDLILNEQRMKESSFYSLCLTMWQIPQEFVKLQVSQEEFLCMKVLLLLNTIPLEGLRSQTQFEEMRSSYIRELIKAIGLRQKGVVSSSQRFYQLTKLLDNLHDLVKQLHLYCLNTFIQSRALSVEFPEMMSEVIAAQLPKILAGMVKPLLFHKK
Protocol: (§1) Mammalian Two Hybrid Assays.
(§2) To investigate whether hPR was able to recruit transcriptional corepressors upon APRn binding, two hybrid assays have been performed in HEK 293T cells. Cell transfection were carried out according to the protocol used for the PR transactivation assays, with 1 μg of pGAL4-SMRT or pGAL4-NcoR, 2.5 μg of the PR expression vector pV16-PR and 5 μg of the reporter pG5-luc. The plasmid pGAL4-SMRT and pGAL4-NcoR, provided by P. Balaguer, encode the fusion protein between the GAL4 DNA-binding domain (GAL4DBD) and the receptor interacting domain (RID) of the corepressor […], respectively. The expression vector pV16PR encodes the VP16 activation domain of herpes simplex virus fused to the entire hPR and pG5-luc, provided by P. Fuller, encodes the luciferase gene driven by a GAL4-responsive promoter. […] Cell transfection were carried out according to the PR transactivation assays, by using 2 μg of pM-TIF2/Nter-RID or […], 2 μg of the expression vector pV16PR and 5 μg of the reporter pG5luc. The plasmids pM-TIF2/Nter-RID encodes the fusion proteins between the GAL4 DBD and the 1-867 TIF2 sequence corresponding to the Nter and RID domains. The plasmids pMTIF2-Nter encodes the fusion proteins between the GAL4 DBD and the 1-623 TIF2 sequence corresponding to the Nter domain. After 16 h incubation, the transfected cells were washed with PBS containing 2.5 mM EDTA, trypsinized and replated in 24-well plates. […] Cells were lysed and the luciferase and activities were quantified by using a Mithras reader microplates (Berthold).
(§3) Both agonist- and antagonist-bound PR regulate gene transcription with the assistance of transcriptional co-repressors (NCoR, SMRT) or co-activators (namely, TIF-2). To characterize the mechanism by which APRn inactivate hPRB, the capacity of hPRB to recruit transcriptional co-regulators upon APRn binding has been evaluated. […]

[2] = target: T2, hPRB and SMRT (Homo sapiens, UniProt P06401); assay: Mammalian two hybrid assay, recruitment of co-repressor SMRT by hPRB; format: cell-based; details: HEK293T, FIGS. 13 and 14
T2 construct: expressed in transfected cells; host or cells: HEK 293T
T2 sequence (P06401 1-933): T1 sequence (P06401 1-933)
Protocol: as §1, §2, §3

SMILES: C[C@]12CCC3C(CC=C4C[C@@H](F)CC[C@@H]43)C1CCC2=O (stereo partly drawn) [APR-47, 3β-Fluoro-19-nor-androst-5-en-17-one]
- recruitment of co-repressor NCoR by hPRB upon ligand binding [1]: unable to recruit
- recruitment of co-repressor SMRT by hPRB upon ligand binding [2]: unable to recruit

SMILES: CC#C[C@]1(O)CCC2C3CC[C@H]4CCCC[C@@H]4C3CC[C@@]21C (stereo partly drawn) [APR-54, 17α-(1-Propynyl)-19-nor-5-androstan-17β-ol]
- recruitment of co-repressor NCoR by hPRB upon ligand binding [1]: unable to recruit
- recruitment of co-repressor SMRT by hPRB upon ligand binding [2]: unable to recruit

SMILES: CC(=O)[C@H]1CC[C@H]2[C@@H]3CC=C4C[C@@H](F)CC[C@]4(C)[C@H]3CC[C@]12C [APR-16, 3β-Fluoropregn-5-en-20-one]
- recruitment of co-repressor NCoR by hPRB upon ligand binding [1]: unable to recruit
- recruitment of co-repressor SMRT by hPRB upon ligand binding [2]: unable to recruit
